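How tested: cells in 96-well plates exposed to compound for 48 hours at five concentrations. At the GI50, growth is halved.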 Active and inactive are the calls of the source. Rule as the data show it: active = GI50 up to about 1.1 µM and inactive = higher.
Assays:
Assay in all cases: NCI tumour cell line growth inhibition, 48 h
OVCAR-5 = test system: OVCAR-5
UACC-62 = test system: UACC-62
OVCAR-3 = test system: OVCAR-3
HOP-62 = test system: HOP-62
COLO 205 = test system: COLO 205
SNB-19 = test system: SNB-19
TK-10 = test system: TK-10
HCT-15 = test system: HCT-15
KM-20L2 = test system: KM-20L2
ACHN = test system: ACHN
SW-620 = test system: SW-620
HOP-18 = test system: HOP-18
IGROV-1 = test system: IGROV-1
HOP-92 = test system: HOP-92
KM12 = test system: KM12
DMS-114 = test system: DMS-114
NCI-H226 = test system: NCI-H226
MOLT-4 = test system: MOLT-4
HL-60 = test system: HL-60

Row | Compound | GI50 (OVCAR-5) | GI50 (UACC-62) | GI50 (OVCAR-3) | GI50 (HOP-62) | GI50 (COLO 205) | GI50 (SNB-19) | GI50 (TK-10) | GI50 (HCT-15) [µM] | GI50 (KM-20L2) | GI50 (ACHN) | GI50 (SW-620) | GI50 (HOP-18) | GI50 (IGROV-1) | GI50 (HOP-92) | GI50 (KM12) | GI50 (DMS-114) | GI50 (NCI-H226) | GI50 (MOLT-4) | GI50 (HL-60)
1 | NNC(=O)N/N=C1\C(=O)N(c2nccs2)C(=O)C(=O)C1c1nc2ccccc2s1 (configuration not stated) | > 100 µM (inactive) | > 100 µM (inactive) | > 100 µM (inactive) | > 100 µM (inactive) | > 100 µM (inactive) | > 100 µM (inactive) | > 100 µM (inactive) | > 100 | > 100 µM (inactive) | > 100 µM (inactive) | > 100 µM (inactive) | 7.19 µM (inactive) | > 100 µM (inactive) | > 100 µM (inactive) | > 100 µM (inactive) | > 100 µM (inactive) | > 100 µM (inactive) | – | –
2 | CCCN(CCCC(NC(C)=O)C(=O)NCc1ccccc1)C(=O)N(C)N=O (configuration not stated) | > 100 µM (inactive) | > 100 µM (inactive) | > 100 µM (inactive) | > 100 µM (inactive) | > 100 µM (inactive) | – | > 100 µM (inactive) | > 100 | > 100 µM (inactive) | > 100 µM (inactive) | > 100 µM (inactive) | – | > 100 µM (inactive) | > 100 µM (inactive) | > 100 µM (inactive) | > 100 µM (inactive) | > 100 µM (inactive) | 77.6 µM (inactive) | –
3 | Oc1ccc(I)c2cccnc12 | 52.5 µM (inactive) | – | 4.82 µM (inactive) | 14.8 µM (inactive) | 27.2 µM (inactive) | 17.8 µM (inactive) | 37.2 µM (inactive) | 4.19 | 50.4 µM (inactive) | 7.13 µM (inactive) | 4.43 µM (inactive) | 8.07 µM (inactive) | 8.18 µM (inactive) | 15.9 µM (inactive) | 14.8 µM (inactive) | – | 15.6 µM (inactive) | 2.96 µM (inactive) | 2.12 µM (inactive)
4 | C[C@@]12CCCc3coc(c31)C(=O)c1cc3c(cc12)C(=O)C=CC3=O [XESTOQUINONE] | 22 µM (inactive) | 17.4 µM (inactive) | 20.2 µM (inactive) | – | – | 43.8 µM (inactive) | 21.2 µM (inactive) | 17.7 | 18.4 µM (inactive) | 12.8 µM (inactive) | 5.08 µM (inactive) | 15 µM (inactive) | 18.5 µM (inactive) | 4.52 µM (inactive) | 21.7 µM (inactive) | 18.5 µM (inactive) | – | 1.96 µM (inactive) | 2.38 µM (inactive)
5 | Cc1ccc(C)c(NC2=NC(=O)C(CC(=O)Nc3ccc(Cl)cc3Cl)S2)c1 (configuration not stated) | > 100 µM (inactive) | 28.9 µM (inactive) | 49.9 µM (inactive) | > 100 µM (inactive) | 88.7 µM (inactive) | 48.5 µM (inactive) | > 100 µM (inactive) | > 100 | > 100 µM (inactive) | > 100 µM (inactive) | > 100 µM (inactive) | > 100 µM (inactive) | > 100 µM (inactive) | – | 52.6 µM (inactive) | 42.6 µM (inactive) | 28.1 µM (inactive) | 54.8 µM (inactive) | > 100 µM (inactive)
6 | CCOC(=O)c1nc2ccc(Cl)cc2c2c1Cc1ccccc1-2 | > 100 µM (inactive) | > 100 µM (inactive) | > 100 µM (inactive) | > 100 µM (inactive) | > 100 µM (inactive) | > 100 µM (inactive) | > 100 µM (inactive) | > 100 | > 100 µM (inactive) | > 100 µM (inactive) | > 100 µM (inactive) | > 100 µM (inactive) | > 100 µM (inactive) | – | > 100 µM (inactive) | – | > 100 µM (inactive) | > 100 µM (inactive) | –
7 | COc1cc2c(c(OC)c1OC)-c1ccc(SC)c(=O)cc1C(CC(=O)Oc1cccc([N+](=O)[O-])c1)C2 (configuration not stated) | – | 0.356 µM (active) | 0.276 µM (active) | – | 0.489 µM (active) | 4.62 µM (inactive) | > 90.8 µM (inactive) | 0.4 | 0.585 µM (active) | 0.891 µM (active) | 0.4 µM (active) | > 100 µM (inactive) | 3.44 µM (inactive) | 3.09 µM (inactive) | 0.424 µM (active) | 0.312 µM (active) | 0.764 µM (active) | 1.15 µM (inactive) | 0.255 µM (active)
8 | COc1ccc(C(=O)/C(=N/Nc2ccccc2)c2ccc(OC)cc2)cc1 | > 100 µM (inactive) | 13.3 µM (inactive) | – | – | > 100 µM (inactive) | > 100 µM (inactive) | > 100 µM (inactive) | 8.55 | 10.2 µM (inactive) | 33.9 µM (inactive) | > 100 µM (inactive) | > 100 µM (inactive) | > 100 µM (inactive) | – | 10.6 µM (inactive) | 58.1 µM (inactive) | > 100 µM (inactive) | 9.66 µM (inactive) | –

Source: ChEMBL document CHEMBL1201862, “PubChem BioAssay data set” (2004)
